One block for each compound: values may come before it.
Assays:
[1] = Percentage of encapsulated RNA and RNA concentration of replicon liposomes (Quant-iT RiboGreen); assay type: physicochemical; conditions: for %E (% entrapment) 1st IM / Conc (Concentration of RNA) 1st IM: RSV-F replicon RNA LNP prepared for 1st immunization; for %E (% entrapment) 2nd IM / Conc (Concentration of RNA) 2nd IM: RSV-F replicon RNA LNP prepared for 2nd immunization
Method: RNA was encapsulated in liposomes made essentially by the method of Geall et al. (2012) PNAS vol. 109 (36): 14604-14609, Jeffs et al. (2005) Pharmaceutical Research 22 (3):362-372, and Maurer et al. (2001) Biophysical Journal, 80: 2310-2326 The liposomes were made of 10% DSPC (zwitterionic), 40% cationic lipid, 48% cholesterol and 2% PEG-conjugated DMG (2 kDa PEG). These proportions refer to the % moles in the total liposome.
Briefly, lipids were dissolved in ethanol (2 ml), a RNA replicon was dissolved in buffer (2 ml, 100 mM sodium citrate, pH 6) and these were mixed with 2 ml of buffer followed by 1 hour of equilibration. The mixture was then dialized overnight against 1×PBS. The resulting product contained liposomes, with ˜70-95% encapsulation efficiency. For in vitro and in vivo experiments formulations were diluted to the required RNA concentration with 1×PBS.
The percentage of encapsulated RNA and RNA concentration were determined by Quant-iT RiboGreen RNA reagent kit (Invitrogen), following manufacturer's instructions. The ribosomal RNA standard provided in the kit was used to generate a standard curve. Liposomes were diluted 10× or 100× in 1×TE buffer (from kit) before addition of the dye. Separately, liposomes were diluted 10× or 100× in 1×TE buffer containing 0.5% Triton X before addition of the dye (to disrupt the liposomes and thus to assay total RNA). Thereafter an equal amount of dye was added to each solution and then ˜180 μL of each solution after dye addition was loaded in duplicate into a 96 well tissue culture plate. The fluorescence (Ex 485 nm, Em 528 nm) was read on a microplate reader. All liposome formulations were dosed in vivo based on the encapsulated amount of RNA.
(§1) % entrapment (% E), Concentration of RNA (Conc), particle size measured by DLS, and polydispersity reported by DLS of LNPs prepared with different cationic lipids

[2] = Particle size of the lipid nanoparticle (Z-average, dynamic light scattering, Malvern Zetasizer); assay type: physicochemical; conditions: RSV-F replicon RNA LNP, DLS; for Size 1st IM: 1st immunization; for Size 2nd IM: 2nd immunization
Text: The lipid nanoparticles have a size of about 1 to about 2,500 nm, about 10 to about 1,500 nm, about 20 to about 1,000 nm, in a sub-embodiment about 50 to about 600 nm, in a sub-embodiment about 50 to about 400 nm, in a sub-embodiment about 50 to about 250 nm, and in a sub-embodiment about 50 to about 150 nm. Unless indicated otherwise, all sizes referred to herein are the average sizes (diameters) of the fully formed nanoparticle, as measured by dynamic light scattering on a Malvern Zetasizer. The nanoparticle sample is diluted in phosphate buffered saline (PBS) so that the count rate is approximately 200-400 kcts. The data is presented as a weighted average of the intensity measure.
Unless indicated otherwise, all particle size measurements referred to in Table 3 are the Z-average particle size of the fully formed nanoparticle, as measured by dynamic light scattering on a Malvern Zetasizer. The nanoparticle sample was diluted in phosphate buffered saline (PBS) so that the count rate is approximately 200-400 kcts.
as §1

[3] = Measurement of mRNA encapsulation in lipid nanoparticles (Quant-iT Ribogreen); assay type: physicochemical; conditions: Leptin mRNA in LNP
Method: All equipment and disposable supplies are certified free of RNase activity by the manufacturer or rendered RNase free by use of the RNaseZap reagent (LifeTechnologies). mRNA is encapsulated at a cationic lipid amine to mRNA phosphate (N:P) molar ratio of 4:1. Lipids (cationic lipid, DSPC, cholesterol and lipidated PEG or stealth lipid) are dissolved in ethanol. The molar ratios are 40:10:38:2, respectively. The mixture is sonicated briefly, then gently agitated for 5 minutes and then maintained at 37° C. until use. mRNA is exchanged into citrate buffer pH 5.8-6.0 by use of Amicon Ultra-15 centrifugal concentrators, and the final concentration is adjusted to 0.5 mg/ml and held at 37° C. until use. An equal volume of lipids in ethanol, mRNA in citrate buffer, and citrate buffer alone are drawn into disposable syringes.
Tubing leading from syringes containing lipids and mRNA are attached to the T junction, and tubing leading from the syringe containing citrate buffer alone is paired with the tubing exiting the T-junction over a collection vessel containing a stir bar on an active stir plate. Syringes are placed in a syringe pump set to expel contents at a flow rate of 1 ml per minute. The pump is activated, and the collected mRNA in lipid nanoparticles is transferred to SnakeSkin dialysis tubing (10,000 MWCO, Thermo Scientific). Material is dialyzed against RNAse- and pyrogen-free 1× phosphate buffered saline overnight at 4° C.
Percent encapsulation of mRNA in lipid nanoparticles is determined using the Quant-iT Ribogreen RNA Assay kit (Life Technologies). The LNP-mRNA suspension is assayed in buffer (mRNA outside the particle), and buffer plus Triton X-100 detergent (total mRNA). The difference calculated is the mRNA inside the particle. Prepare a 1000 ng/mL stock from the RNA provided in the kit and use this to generate a standard curve (0 ng/ml, 15.63-1000 ng/ml) in TE and TE+0.75% Triton X-100. Prepare LNP-mRNA samples in TE buffer and TE buffer+0.75% Triton X-100 with appropriate dilution so that reading is in the range of standard curve (400-2,000 fold). In a 384-well plate (Costar non-treated #3573) add 0.04 ml of standard (in duplicate) or sample (in triplicate) per well. Dilute Ribogreen reagent 240-fold in TE buffer and add 0.06 ml per well. Mix contents of wells and measure fluorescence (excitation=480 nm, emission=520 nm). Subtract background values (no RNA) from standard and test sample values and determine the concentrations of RNA in the samples using the standard curves. Determine the percent encapsulation of the sample by dividing the difference in concentrations between sample+triton and sample in buffer alone by the sample+triton concentration.

RSV F protein = assay: RSV immunogenicity: F-specific IgG titers after IM vaccination with liposome-formulated self-replicating RNA; assay type: in vivo; conditions: IM days 0 and 21, BALB/c mice, two weeks after two immunizations
[4] = Polydispersity index (PDI) by dynamic light scattering; assay type: physicochemical; conditions: RSV-F replicon RNA LNP, DLS; for PDI 1st IM: 1st immunization; for PDI 2nd IM: 2nd immunization
Method: Unless indicated otherwise, all PDIs referred to herein are the PDI of the fully formed nanoparticle, as measured by dynamic light scattering on a Malvern Zetasizer. The nanoparticle sample was diluted in phosphate buffered saline (PBS) so that the count rate was approximately 200-400 kcts. The data is presented in Table 3 as a weighted average of the intensity measure.
as §1

SMILES: CCCCC/C=C\C/C=C\CCCCCCCC(=O)OCC(COC(=O)CCC(OCCCCCCCC)OCCCCCCCC)COC(=O)CCN(C)C (stereo not shown) [Example 32, (9Z,12Z)-3-((4,4-bis(octyloxy)butanoyl)oxy)-2-(((3-(dimethylamino)propanoyl)oxy)methyl)propyl octadeca-9,12-dienoate]
%E (% entrapment) 1st IM [1]: 92.6%
Conc (Concentration of RNA) 1st IM [1]: 8810 ng/mL
%E (% entrapment) 2nd IM [1]: 94.72%
Conc (Concentration of RNA) 2nd IM [1]: 9653 ng/mL
Size 1st IM [2]: 136.2 nm
Size 2nd IM [2]: 135 nm
% encapsulation mRNA Leptin [3]: 97.1%
Immunogenicity (2wp2; log10 IgG titers) (RSV F protein; 0.1 ng replicon RNA): 4.77 log10 IgG titers
Immunogenicity (2wp2; log10 IgG titers) (RSV F protein; 1 ng replicon RNA): 4.92 log10 IgG titers
PDI 1st IM [4]: 0.147
PDI 2nd IM [4]: 0.088

SMILES: CCCCC/C=C\C/C=C\CCCCCCCC(=O)OCC(COC(=O)CCC(OCCCCCCCC)OCCCCCCCC)COC(=O)C1CCN(CC2CC2)CC1 (stereo not shown) [Example 34, 3-((4,4-bis(octyloxy)butanoyl)oxy)-2-(((9Z,12Z)-octadeca-9,12-dienoyloxy)methyl)propyl 1-(cyclopropylmethyl)piperidine-4-carboxylate]
%E (% entrapment) 1st IM [1]: 75.5%
Conc (Concentration of RNA) 1st IM [1]: 9240 ng/mL
%E (% entrapment) 2nd IM [1]: 79.19%
Conc (Concentration of RNA) 2nd IM [1]: 11495 ng/mL
Size 1st IM [2]: 136.2 nm
Size 2nd IM [2]: 135.4 nm
% encapsulation mRNA Leptin [3]: 97.1%
Immunogenicity (2wp2; log10 IgG titers) (RSV F protein; 0.1 ng replicon RNA): 3.73 log10 IgG titers
Immunogenicity (2wp2; log10 IgG titers) (RSV F protein; 1 ng replicon RNA): 4.36 log10 IgG titers
PDI 1st IM [4]: 0.116
PDI 2nd IM [4]: 0.11

SMILES: CCCCC/C=C\C/C=C\CCCCCCCC(=O)OCC(COC(=O)CCC(OCCCCCCCC)OCCCCCCCC)COC(=O)C1CCN(C)C1 (stereo not shown) [Example 35, 3-((4,4-bis(octyloxy)butanoyl)oxy)-2-(((9Z,12Z)-octadeca-9,12-dienoyloxy)methyl)propyl 1-methylpyrrolidine-3-carboxylate]
%E (% entrapment) 1st IM [1]: 93.46%
Conc (Concentration of RNA) 1st IM [1]: 10059 ng/mL
%E (% entrapment) 2nd IM [1]: 93.9%
Conc (Concentration of RNA) 2nd IM [1]: 9937 ng/mL
Size 1st IM [2]: 135.2 nm
Size 2nd IM [2]: 137.5 nm
% encapsulation mRNA Leptin [3]: 97.3%
Immunogenicity (2wp2; log10 IgG titers) (RSV F protein; 0.1 ng replicon RNA): 4.53 log10 IgG titers
Immunogenicity (2wp2; log10 IgG titers) (RSV F protein; 1 ng replicon RNA): 4.86 log10 IgG titers
PDI 1st IM [4]: 0.119
PDI 2nd IM [4]: 0.108

SMILES: CCCCC/C=C\C/C=C\CCCCCCCC(=O)OCC(COC(=O)CCC(OCCCCCCCC)OCCCCCCCC)COC(=O)C1(C)CCN(C)CC1 (stereo not shown) [Example 40, 3-((4,4-bis(octyloxy)butanoyl)oxy)-2-(((9Z,12Z)-octadeca-9,12-dienoyloxy)methyl)propyl 1,4-dimethylpiperidine-4-carboxylate]
%E (% entrapment) 1st IM [1]: 71.1%
Conc (Concentration of RNA) 1st IM [1]: 9461 ng/mL
%E (% entrapment) 2nd IM [1]: 78.05%
Conc (Concentration of RNA) 2nd IM [1]: 9650 ng/mL
Size 1st IM [2]: 141 nm
Size 2nd IM [2]: 137.3 nm
% encapsulation mRNA Leptin [3]: 97.2%
Immunogenicity (2wp2; log10 IgG titers) (RSV F protein; 0.1 ng replicon RNA): 4.31 log10 IgG titers
Immunogenicity (2wp2; log10 IgG titers) (RSV F protein; 1 ng replicon RNA): 4.74 log10 IgG titers
PDI 1st IM [4]: 0.122
PDI 2nd IM [4]: 0.118

SMILES: CCCCC/C=C\C/C=C\CCCCCCCC(=O)OCC(COC(=O)CCC(OCCCCCCCC)OCCCCCCCC)COC(=O)OC1CCN(C)CC1 (stereo not shown) [Example 48, (9Z,12Z)-3-((4,4-bis(octyloxy)butanoyl)oxy)-2-(((((1-methylpiperidin-4-yl)oxy)carbonyl)oxy)methyl)propyl octadeca-9,12-dienoate]
%E (% entrapment) 1st IM [1]: 86.169%
Conc (Concentration of RNA) 1st IM [1]: 9841 ng/mL
%E (% entrapment) 2nd IM [1]: 85.6%
Conc (Concentration of RNA) 2nd IM [1]: 9665 ng/mL
Size 1st IM [2]: 137.9 nm
Size 2nd IM [2]: 134.2 nm
% encapsulation mRNA Leptin [3]: 92.8%
Immunogenicity (2wp2; log10 IgG titers) (RSV F protein; 0.1 ng replicon RNA): 4.58 log10 IgG titers
Immunogenicity (2wp2; log10 IgG titers) (RSV F protein; 1 ng replicon RNA): 5.02 log10 IgG titers
PDI 1st IM [4]: 0.091
PDI 2nd IM [4]: 0.075

% encapsulation mRNA Leptin [3]: 31.2%
SMILES: CCCC(CCC)COC(CCCCC(=O)OCC(COC(=O)CCCCCCC(=O)OC)COC(=O)C1(C)CCN(C)CC1)OCC(CCC)CCC (stereo not shown) [Example 72, 1-(3-((6,6-bis((2-propylpentyl)oxy)hexanoyl)oxy)-2-(((1,4-dimethylpiperidine-4-carbonyl)oxy)methyl)propyl) 8-methyl octanedioate]

% encapsulation mRNA Leptin [3]: 9.3%
SMILES: COC(=O)CCCCCCC(=O)OCC(COC(=O)CCCCCCC(=O)OC)COC(=O)C1CCN(C)C1 (stereo not shown) [Example 73, 8-dimethyl O′1,O1-(2-(((1-methylpyrrolidine-3-carbonyl)oxy)methyl)propane-1,3-diyl)dioctanedioate]

% encapsulation mRNA Leptin [3]: 23.0%
SMILES: CCCCCCCCCCCCC(CCOC(=O)OCC(COC(=O)CCCCCCC(=O)OC)COC(=O)CCCCCCC(=O)OC)OC(=O)OCCCN(C)C (stereo not shown) [Example 74, O′1,O1-(2-(7-dodecyl-14-methyl-3,9-dioxo-2,4,8,10-tetraoxa-14-azapentadecyl)propane-1,3-diyl) 8-dimethyl dioctanedioate]

Reference: US10059655B2, “Lipids and lipid compositions for the delivery of active agents” (priority 2013, dated 2018)
